How the values were obtained:
[1] = test system: AKT phosphorylation in bovine chondrocytes; assay: Stimulation of AKT phosphorylation in primary bovine chondrocytes (pAKT ELISA); format: cell-based; details: 10 min stimulation, doses in M (Table 4), 6x-Histidine-tagged fusion proteins
Method: (§1) Fusion proteins comprising IGF-1 and a cartilage matrix binding domain were prepared as described above. Six fusion proteins were prepared: GF-Fus1 (6x-Histidine-tagged), GF-Fus2(6x-Histidine-tagged), GF-Fus3 (6x-Histidine-tagged), GF-Fus4 (6x-Histidine-tagged), GF-Fus5 (6x-Histidine-tagged), and GF-Fus6 (6x-Histidine-tagged). In order to ensure that the growth factor portion of the fusion protein was active in the fusion proteins, each construct was tested for its ability to stimulate AKT phosphorylation. Wild-type IGF-1 (wtIGF) was included as a control. Bovine chondrocytes were stimulated with a range of doses of each fusion protein, and pAKT levels were measured by ELISA.
Bovine chondrocytes are isolated from the femoral chondyles of 2-4 week old bovine calves. Knee joints are mounted by removing all tissue surrounding the femur, removing the femoral head with a bone saw or hack saw, and clamping in a tissue vice. Joints are aseptically opened, removing the patella, tibia and fibula. Using a scalpel, cartilage is sliced off the femoral chondyles and placed in sterile PBS (pH=7.4) containing penicillin-streptomycin (1×, Gibco 15140-122). PBS is subsequently removed and pronase solution (50 mL per 5 g of tissue), consisting of high glucose DMEM (Life Technologies Cat#11965-092), fetal bovine serum (10% v/v, Life Technologies Cat#16140071), HEPES (100 mM, Gibco 15630-080), non-essential amino acids (1×, Sigma M7145), penicillin-streptomycin (1×, Gibco 15140-122), proline (400 μM, Sigma P5607-256), Protease Type XIV (2 mg/mL, Sigma Cat# P5147), is added for 1 hour with stirring. After rinsing twice with sterile PBS (pH=7.4), collagenase solution (50 mL per 5 g of tissue), consisting of high glucose DMEM (Life Technologies Cat#11965-092), fetal bovine serum (10% v/v, Life Technologies Cat#16140071), HEPES (100 mM, Gibco 15630-080), NEAA(1×, Sigma M7145), Penicillin-Streptomycin (1×, Gibco 15140-122), 0.25 mg/mL Collagenase P (Roche Cat#11 249 002 001), is added for 18 hours with stirring. Cell are strained, washed, and resuspended in chondrocyte culture medium (low glucose DMEM (1× Gibco 11885-084), Penicillin-Streptomycin (1×, Gibco 15140-122), non-essential amino acids (1×, Sigma M7145), and HEPES (100 mM, Gibco 15630-080)) with fetal bovine serum (10% v/v, Life Technologies Cat#16140071).
For ligand stimulation, chondrocytes were seeded at 200,000 cells/well into 96-well tissue culture plates with 100 μL of chondrocyte culture medium with fetal bovine serum (10% v/v, Life Technologies Cat#16140071). […]

[2] = test system: bovine cartilage explants; assay: In vitro joint disease model (IL-1), explanted bovine cartilage: sGAG loss; format: cell-based; details: 13.3 nM supplied in every medium change, IL-1, relative to Disease control
Description: (§2) Bovine cartilage explants (3 mm diameter, 1.2 mm thick) are harvested from the femoral patellar groove of 2-4 week old bovine calves. Knee joints are mounted by removing all tissue surrounding the femur, removing the femoral head with a bone saw or hack saw, and clamping in a tissue vice. Joints are aseptically opened, removing the patella, tibia and fibula. Using a 3 mm diameter disposable biopsy punch, approximately 80×3 mm diameter full thickness cartilage cores are punched from the femoral-patellar groove. A sterile knife is used to slice the cores at the cartilage-bone interface. Cores are then inserted into 3 mm diameter holes in a 1.2 mm thick sterile stainless steel plate and sliced flush with the plate using sterile razor blades to remove the excess core length, resulting in 3 mm diameter, 1.2 mm thick cartilage explants with the superficial zone cartilage intact.
(§3) Explants are cultured in 96-well plates in 300 μL of medium consisting of low glucose DMEM (1× Gibco 11885-084), Penicillin-Streptomycin (1×, Gibco 15140-122), ascorbic acid (20 μg/mL, Sigma A4403), proline (400 μM, Sigma P5607-256), non-essential amino acids (1×, Sigma M7145), and HEPES (100 mM, Gibco 15630-080). Explants from three animals (n=2-3 per animal) are used in each treatment condition for a total explant number of 8-9 per condition. Medium is changed every 2 days. On days 6 and 10, the medium is supplemented with 5 μCi/mL of ^35S-sodium sulfate (Perkin Elmer NEX041H001MC, 1 mCi).
(§4) Timepoints are taken at day 8 and 12: explant tissue is washed four times for 30 min each (2 hr total) in 1 mM unlabeled sodium sulfate in PBS. Each explant is weighed wet and frozen at −20° C. until digestion. Tissue digestion was performed with Proteinase K (Roche cat #3115879001) and each explant is digested in 1 mL 100 μg/mL Proteinase K in 50 mM Tris-HCL, 1 mM Calcium Chloride pH=8.0 buffer at 60° C. overnight. Measurement of sGAG content and DNA content is performed using standard assay methods such as those described in Hoemann, 2004, Methods in Molecular Medicine: Cartilage and Osteoarthritis. Totowa, N.J.: Humana Press Inc.; p. 127-52. ^35S-sulfate content of the digested cartilage explants was quantified by mixing 20 μL of digest with 250 μL of scintillation fluid (Perkin Elmer cat #1200-439) and counting with a WALLAC 1450 MICROBETA TRILUX scintillation counter.
(§5) Treatments were given at the following concentrations: wtIGF-1 13.3 nM=100 ng/mL (IGF-1 R&D systems 291-G1); GF-Fus1 (6x-Histidine tagged) 13.3 nM=135 ng/mL; GF-Fus2 (6x-Histidine tagged) 13.3 nM=140 ng/mL; and GF-Fus3 (6x-Histidine tagged)13.3 nM=181 ng/mL. All treatments included IL-1 and were given for either 4 days or the entire culture duration. The outcomes measured were ^35S-sulfate incorporation, DNA content, and sGAG content of plug at endpoint, and sGAG released to media for all media changes. Controls were either no treatment (Healthy) or IL-1 alone at 1 ng/mL (Disease).
(§6) FIG. 4 depicts a graph of cartilage matrix loss as measured by the cumulative percentage of total sGAG lost to the culture medium against time (days). Percentage loss is calculated by dividing the cumulative sGAG in the culture medium by the total sGAG present in the medium over the culture period plus the sGAG remaining in the explant at the end of culture. Cartilage matrix loss was reduced by each IGF fusion protein relative to the disease control at a level similar to wild-type IGF. New cartilage matrix synthesis (i.e. sulfated proteoglycan synthesis is measured by ^35S-Sulfate incorporation) during the final 48 hrs of cultures terminated at day 8 and day 12 is shown in FIGS. 5A and 5B, respectively. Cartilage matrix synthesis was increased compared to disease control by all fusion proteins (GF-Fus1, GF-Fus2, and GF-Fus3) and wild-type IGF when the fusion proteins were supplied in every medium change for the entire culture duration of 8 and 12 days (black bars). […]

[3] = test system: bovine cartilage explants; assay: In vitro joint disease model (IL-1), explanted bovine cartilage: ^35S-sulfate incorporation; format: cell-based; details: supplied in every medium change for 8 or 12 days, IL-1, final 48 hrs, versus Disease control
Description: as §2, §3, §4, §5, §6

[4] = ELISA binding of fusion proteins to heparan sulfate coated plates; details: 6x-Histidine-tagged proteins, FIG. 1A
Method: (§7) The specificity of binding of fusion proteins to the polysaccharides heparan sulfate and chondroitin sulfate may be determined by measuring the ability of the proteins to bind polysaccharides coated on an ELISA plate. Heparin Binding Plates (BD Biosciences) are coated with 50 μl of 2-10 μg/mL concentration of heparan sulfate or chondroitin sulfate (Sigma-Aldrich®) and incubated overnight at room temperature. Plates are washed with PBS and blocked with 250 μl of 0.2% gelatin in PBS for 1 hour at 37 C. Plates are then washed with PBS and tapped dry. 50 μl of protein in a dilution series is added to the wells and incubated for 2 hours at 37 C. The protein dilution series starts from 100 nM and includes ten additional three-fold dilutions in PBS, 0.2% gelatin and one blank (PBS, 0.2% gelatin only). After the plates are washed in PBS, 50 μl of anti-human IGF-1 (Abcam) at 1:250 in PBST is added and the plates are incubated for 1 hour rotating at room temperature. Plates are washed with PBST and 100 μl of 1:1000 anti-Rabbit-HRP (Cell Signaling Technology®) in PBST is added to each well and the plate is incubated for 1 hour at room temperature. […] The absorbance is measured at 450 nm and the resulting data is analyzed using GraphPad Prism® (GraphPad Software, San Diego, Calif.). […]

[5] = ELISA binding of fusion proteins to chondroitin sulfate coated plates; details: 6x-Histidine-tagged proteins, FIG. 1B
Method: as §7

BXPC-3 cells = assay: Stimulation of AKT phosphorylation in BXPC-3 cells (pAKT ELISA); format: cell-based; details: 10 min stimulation, doses in M (Table 4), 6x-Histidine-tagged fusion proteins
Method: as §1
For ligand stimulation, chondrocytes were seeded at 200,000 cells/well into 96-well tissue culture plates with 100 μL of chondrocyte culture medium with fetal bovine serum (10% v/v, Life Technologies Cat#16140071). Alternatively, BXPC-3 cells, a pancreatic adenocarcinoma cell line (ATCC® CRL-1687™), were seeded at 30,000 cells/well into 96-well tissue culture plates with 100 μL of BXPC-3 medium (RPMI-1640, e.g., ATCC® 30-2001™), with L-glutamine (2 mM), Penicillin-Streptomycin (1×, Gibco® 15140-122), Fetal Bovine Serum (10% v/v, Life Technologies Cat#16140071)). After 24 hrs, both chondrocytes and BXPC-3 cells were rinsed with 100 μL of sterile PBS (pH=7.4) per well and 100 μl of chondrocyte or BXPC-3 culture medium (without fetal bovine serum) was added to the corresponding cell type. After an additional 24 hrs, cells were stimulated with the doses of fusion proteins set forth in Table 4 by adding 25 μL of fusion protein at a concentration 5 times greater than the concentration listed in Table 4 to the 100 μL of medium already in the wells. After 10 min of stimulation, fusion protein was removed and wells were rinsed in ice cold PBS (pH=7.4). 50 μL/well of cell extraction buffer (Invitrogen cat# FNN0011) was added and incubated with shaking at 4° C. for 30 minutes. Lysates were then frozen at −80° C.
Corning high binding 384 well black ELISA plates (cat#3577) are coated with 30 μL of capture antibody at 4 μg/mL (anti-AKT1 total capture antibody, Upstate, Cat#05-591MG) in PBS (pH=7.4) for 16 hours at room temperature, washed and blocked with […] 2% bovine serum albumin (Sigma Cat# A3294) in PBS (pH=7.4) for 1 hour at room temperature. 20 μL of thawed lysates or recombinant pAKT standards (ten 2-fold serial dilutions of 400 ng recombinant human AKT, active (Upstate, Cat#14-276) in PBS (pH=7.4) containing 50% v/v Cell extraction buffer (Invitrogen Cat#FNN0011), 1% bovine serum albumin (Sigma Cat# A3294), 0.05% Tween20) are applied to the coated plate and incubated for 2 hours at room temperature. After washing 3 times with 100 μL/well of 0.05% Tween-20/PBS (pH=7.4) bound phospho-AKT is detected using Phospho-AKT (Ser473)(587F11)-biotinylated (Cell Signaling, Cat#5102), streptavidin-HRP (R&D Systems Cat# DY998, Part #890803), SuperSignal ELISA PicoChemiluminescent Substrate (Thermo Scientific Cat#37069), using a luminometer to detect light emissions at 425 nm.

Row | Substance | logEC50 Mean [1] | cartilage matrix loss (% sGAG loss) [2] | cartilage matrix synthesis (^35S-sulfate incorporation) [3] | binding to heparan sulfate [4] | binding to chondroitin sulfate [5] | logEC50 Mean (BXPC-3 cells)
1 | GF-Fus2: N-terminal Prelp HB domain fused to wild-type IGF | −8.830 | reduced | increased |  |  | 
2 | GF-Fus4: IGF-1(LR3) fused to Collagen IX HB domain |  |  |  | did not bind | did not bind | −9.133

Reference: patent US20170327556A1, “CARTILAGE-BINDING FUSION PROTEINS” (Merrimack Pharmaceuticals, Inc., priority 2013, published 2017)
